Source: patent US20210371374A1, “METAL DI-AMINO ACID CHELATES OR METAL TRI-AMINO ACID CHELATES” (Balchem Corporation, priority 2020, published 2021)
Peptide text beside a SMILES is read from it.

Tests used:
[1] = Stability of Mg(G3) in solution via 1H NMR; assay type: physicochemical; conditions: 1H NMR in D2O; periods up to 72 hrs
Description: At 72 hrs, an observable upfield shift occurs, which may be due to isomer formation. There is no observable change in proton integration. NMR taken in D2O.

Caco-2 cells = assay: Cellular uptake in Caco-2 cells, BioVision colorimetric magnesium uptake assay kit; assay type: in vitro ADME; conditions: compared with other magnesium complexes
Description: 18 MΩ Ultrapure water was obtained in-house.

| Compound | stability in solution [1] | cellular uptake in CaCo-2 cell line (FIG. 72) (Caco-2 cells) |
| --- | --- | --- |
| NCC(=O)NCC(=O)NCC(=O)[O-].[Mg+2].[OH-] [Mg(G3), magnesium 2-[[2-[(2-aminoacetyl)amino]acetyl]amino]acetic acid chelate] (H-Gly-Gly-Gly-OH) | considerable stability | – |
| NCC(=O)[O-].NCC(=O)[O-].[Mg+2] [MgBG, magnesium bisglycinate, reference compound] | – | significantly less cellular uptake than Mg(G3) |
| magnesium diglycine [MgG2] | – | relatively linear uptake |
